# Reference: patent publication US5120711A, “Synergistically active veterinary compositions and process for preparing same” (EGIS Gyogyszergyar, priority 1988, dated 1992)
# Positions of bridges follow the written chain, without caps; N, C: chain ends. Non-standard residues stand in square brackets, D forms with d. Residues, ends and D or L forms follow the SMILES beside them. *: point of attachment. Octanoyl(6-Me) = CCC(C)CCCCC(=O)*; Dab = NCC[CH](N)C(=O)O
# Legend:
# Listeria monocytogenes = assay: MIC, serial dilution in phenol red-glucose broth; type: cell-based; details: bactericidal, complete inhibition of growth, 37° C.; for MIC: Listeria monocytogenes, read-out: MIC values for microorganism L (Listeria monocytogenes)
# Method: (§1) The minimum inhibitory concentrations (MIC values) of the above compounds and their two-component combinations of 1:1 ratio by weight against the following microorganisms arising from mastitis and metritis processes of cattle were tested by using the serial dilution method in a phenol red-glucose broth medium (manufactured by DIFCO) or, by using a Sabouraud's broth medium, respectively in the cases of fungal strains.
# L--Listeria monocytogenes
# (§2) Bacterial strains were cultivated at 37° C. whilst the fungal strain (Candida albicans) was propagated at 26° C.
# Corynebacterium pyogenes = assay: MIC, serial dilution in phenol red-glucose broth; type: cell-based; details: bactericidal, complete inhibition of growth, 37° C.; for MIC: Corynebacterium pyogenes, read-out: MIC values for microorganism M (Corynebacterium pyogenes)
# Method: as §1
# M--Corynebacterium pyogenes
# as §2
# [1] = test system: Streptococcus dysgalactiae; assay: MIC, serial dilution in phenol red-glucose broth; type: cell-based; details: bactericidal, complete inhibition of growth, 37° C.; for MIC: Streptococcus dysgalactiae, read-out: MIC values for microorganism I (Streptococcus dysgalactiae)
# Method: as §1
# I--Streptococcus dysgalactiae
# as §2
# Campylobacter jejuni = assay: MIC in semiliquid thiol culture medium; type: cell-based; details: bactericidal, complete inhibition of growth, 37° C.; for MIC: Campylobacter jejuni, read-out: MIC values for microorganism P (Campylobacter jejuni)
# Method: as §1
# (§3) Campylobacter strains were tested in a semiliquid thiol culture medium (manufactured by DIFCO). Bacteroides fragilis and Fusobacterium necrophorum strains were examined by using the agar dilution method on bloody agar containing also tryptose.
# as §2
# Campylobacter fetus = assay: MIC in semiliquid thiol culture medium; type: cell-based; details: bactericidal, complete inhibition of growth, 37° C.; for MIC: Campylobacter fetus, read-out: MIC values for microorganism O (Campylobacter fetus)
# Method: as §1, §3, §2
# Streptococcus agalactiae = assay: MIC, serial dilution in phenol red-glucose broth; type: cell-based; details: bactericidal, complete inhibition of growth, 37° C.; for MIC: Streptococcus agalactiae, read-out: MIC values for microorganism H (Streptococcus agalactiae)
# Method: as §1
# H--Streptococcus agalactiae
# as §2
# Bacteroides fragilis = assay: MIC, agar dilution method on bloody agar; type: cell-based; details: agar dilution method on bloody agar containing tryptose, 37° C.; for MIC: Bacteroides fragilis, read-out: MIC values for microorganism R (Bacteroides fragilis)
# Method: as §1, §3, §2
# [2] = test system: Fusobacterium necrophorum; assay: MIC, agar dilution method on bloody agar; type: cell-based; details: agar dilution method on bloody agar containing tryptose, 37° C.; for MIC: Fusobacterium necrophorum, read-out: MIC values for microorganism S (Fusobacterium necrophorum)
# Method: as §1
# S--Fusobacterium necrophorum
# as §3, §2
# Streptococcus faecalis = assay: MIC, serial dilution in phenol red-glucose broth; type: cell-based; details: bactericidal, complete inhibition of growth, 37° C.; for MIC: Enterococcus faecalis, read-out: MIC values for microorganism K (Streptococcus faecalis)
# Method: as §1
# K--Streptococcus faecalis
# as §2
# Aspergillus fumigatus = assay: MIC, serial dilution in Sabouraud's broth; type: cell-based; details: complete inhibition of growth; for MIC: Aspergillus fumigatus, read-out: MIC values for microorganism Z (Aspergillus fumigatus)
# Method: as §1
# Z--Aspergillus fumigatus.
# as §2
# Salmonella typhimurium = assay: MIC, serial dilution in phenol red-glucose broth; type: cell-based; details: bactericidal, complete inhibition of growth, 37° C.; for MIC: Salmonella enterica, TYPHIMURIUM, read-out: MIC values for microorganism N (Salmonella typhimurium)
# Method: as §1
# N--Salmonella typhimurium
# as §2
# Candida albicans = assay: MIC, serial dilution in Sabouraud's broth; type: cell-based; details: for MIC: Candida albicans, read-out: MIC values for microorganism G (Candida albicans)
# Method: as §1, §2
# Mycoplasma bovis = assay: MIC, serial dilution in phenol red-glucose broth; type: cell-based; details: bactericidal, complete inhibition of growth, 37° C.; for MIC: Mycoplasmopsis bovis, read-out: MIC values for microorganism T (Mycoplasma bovis)
# Method: as §1
# Bacterial strains were cultivated at 37° C. whilst the fungal strain (Candida albicans) was propagated at 26° C. The minimum inhibitory concentrations (MIC values) showing a bactericidal effect, i.e. complete inhibition of the growth of microorganisms whereby the media inoculated remained sterile, are summarized in Table 1.
# [3] = test system: Streptococcus zooepidemicus; assay: MIC, serial dilution in phenol red-glucose broth; type: cell-based; details: bactericidal, complete inhibition of growth, 37° C.; for MIC: Streptococcus equi, read-out: MIC values for microorganism B (Streptococcus zooepidemicus)
# Method: as §1
# B--Streptococcus zooepidemicus
# as §2
# Klebsiella pneumoniae = assay: MIC, serial dilution in phenol red-glucose broth; type: cell-based; details: bactericidal, complete inhibition of growth, 37° C.; for MIC: Klebsiella pneumoniae, read-out: MIC values for microorganism E (Klebsiella pneumoniae)
# Method: as §1, §2
# Mycoplasma bovirhinis = assay: MIC, serial dilution in phenol red-glucose broth; type: cell-based; details: bactericidal, complete inhibition of growth, 37° C.; for MIC: Mycoplasma, read-out: MIC values for microorganism U (Mycoplasma bovirhinis)
# Method: as §1, §2
# Mycoplasma canadense = assay: MIC, serial dilution in phenol red-glucose broth; type: cell-based; details: bactericidal, complete inhibition of growth, 37° C.; for MIC: Mycoplasma, read-out: MIC values for microorganism V (Mycoplasma canadense)
# Method: as §1, §2
# Streptococcus uberis = assay: MIC, serial dilution in phenol red-glucose broth; type: cell-based; details: bactericidal, complete inhibition of growth, 37° C.; for MIC: Streptococcus uberis, read-out: MIC values for microorganism J (Streptococcus uberis)
# Method: as §1, §2
# Pseudomonas aeruginosa = assay: MIC, serial dilution in phenol red-glucose broth; type: cell-based; details: bactericidal, complete inhibition of growth, 37° C.; for MIC: Pseudomonas aeruginosa, read-out: MIC values for microorganism F (Pseudomonas aeruginosa)
# Method: as §1
# F--Pseudomonas aeruginosa
# as §2
# Staphylococcus aureus = assay: microbe, parasite or virus in culture; details: for MIC: Staphylococcus aureus, read-out: MIC values for microorganism A (Staphylococcus aureus)
# Method: as §1, §2
# Escherichia coli 494 = assay: microbe, parasite or virus in culture; details: for MIC: Escherichia coli, 494, read-out: MIC values for microorganism C (Escherichia coli 494)
# Method: as §1, §2
# Escherichia coli 17 = assay: microbe, parasite or virus in culture; details: for MIC: Escherichia coli, 17, read-out: MIC values for microorganism D (Escherichia coli 17)
# Method: as §1, §2
# [4] = complete inhibition of growth, Sabouraud's broth, 26° C.
# [5] = bactericidal, complete inhibition of growth, phenol red-glucose broth, 37° C.
structure (smiles),measurement,setting,value
"Cc1ccc2c(Cl)cc(Cl)c(O)c2n1 [Chlorquinaldol, 2-methyl-5,7-dichloro-8-hydroxyquinoline]",MIC,Listeria monocytogenes,1 µg/mL
same,MIC,Corynebacterium pyogenes,5 µg/mL
same,MIC,[1],0.5 µg/mL
same,MIC,Campylobacter jejuni,5 µg/mL
same,MIC,Campylobacter fetus,10 µg/mL
same,MIC,Streptococcus agalactiae,0.5 µg/mL
same,MIC,Bacteroides fragilis,1.5 µg/mL
same,MIC,[2],3 µg/mL
same,MIC,Streptococcus faecalis,5 µg/mL
same,MIC,Aspergillus fumigatus,25 µg/mL
same,MIC,Salmonella typhimurium,200 µg/mL
same,MIC,Candida albicans; [4],1 µg/mL
same,MIC,Mycoplasma bovis,32 µg/mL
same,MIC,[3],0.5 µg/mL
same,MIC,Klebsiella pneumoniae,200 µg/mL
same,MIC,Mycoplasma bovirhinis,4 µg/mL
same,MIC,Mycoplasma canadense,8 µg/mL
same,MIC,Streptococcus uberis,0.5 µg/mL
same,MIC,Pseudomonas aeruginosa,200 µg/mL
same,MIC,Staphylococcus aureus,5 µg/mL
same,MIC,Escherichia coli 494,5 µg/mL
same,MIC,Escherichia coli 17,5 µg/mL
"CCC(C)CCCCC(=O)NC(CCN)C(=O)NC(C(=O)NC(CCN)C(=O)NC1CCNC(=O)C(C(C)O)NC(=O)C(CCN)NC(=O)C(CCN)NC(=O)C(CC(C)C)NC(=O)C(Cc2ccccc2)NC(=O)C(CCN)NC1=O)C(C)O (stereo not drawn) [Polymyxin B, 6,9,18-tris(2-aminoethyl)-15-benzyl-21-[2,8-bis(2-aminoethyl)-5-(1-hydroxyethyl)-15-methyl-4,7,10-trioxo-3,6,9-triazaheptadecanamido]-3-(1-hydroxyethyl)-12-isobutyl-1,4,7,10,13,16,19-heptaazacyclotricosane-2,5,8,11,14,17,20-heptaone] ({Octanoyl(6-Me)}-[Dab]T[Dab][Dab][Dab]FL[Dab][Dab]T; lactam 4-C; configuration not given here)",MIC values for microorganism L (Listeria monocytogenes),Listeria monocytogenes,5 µg/mL
same,MIC values for microorganism M (Corynebacterium pyogenes),Corynebacterium pyogenes,200 µg/mL
same,MIC values for microorganism I (Streptococcus dysgalactiae),[1],5 µg/mL
same,MIC values for microorganism P (Campylobacter jejuni),Campylobacter jejuni,5 µg/mL
same,MIC values for microorganism O (Campylobacter fetus),Campylobacter fetus,0.5 µg/mL
same,MIC values for microorganism H (Streptococcus agalactiae),Streptococcus agalactiae,5 µg/mL
same,MIC values for microorganism R (Bacteroides fragilis),Bacteroides fragilis,200 µg/mL
same,MIC values for microorganism S (Fusobacterium necrophorum),[2],200 µg/mL
same,MIC values for microorganism K (Streptococcus faecalis),Streptococcus faecalis,200 µg/mL
same,MIC values for microorganism Z (Aspergillus fumigatus),Aspergillus fumigatus,200 µg/mL
same,MIC values for microorganism N (Salmonella typhimurium),Salmonella typhimurium,1 µg/mL
same,MIC values for microorganism G (Candida albicans),Candida albicans; [4],200 µg/mL
same,"fungicidal action, in words",Candida albicans; substance alone,practically no fungicidal action
same,MIC values for microorganism T (Mycoplasma bovis),Mycoplasma bovis,32 µg/mL
same,MIC values for microorganism B (Streptococcus zooepidemicus),[3],5 µg/mL
same,MIC values for microorganism E (Klebsiella pneumoniae),Klebsiella pneumoniae,5 µg/mL
same,MIC values for microorganism U (Mycoplasma bovirhinis),Mycoplasma bovirhinis,32 µg/mL
same,MIC values for microorganism V (Mycoplasma canadense),Mycoplasma canadense,32 µg/mL
same,MIC values for microorganism J (Streptococcus uberis),Streptococcus uberis,10 µg/mL
same,MIC values for microorganism F (Pseudomonas aeruginosa),Pseudomonas aeruginosa,0.5 µg/mL
same,MIC values for microorganism A (Staphylococcus aureus),Staphylococcus aureus; [5],50 µg/mL
same,MIC values for microorganism C (Escherichia coli 494),Escherichia coli 494; [5],0.5 µg/mL
same,MIC values for microorganism D (Escherichia coli 17),Escherichia coli 17; [5],0.5 µg/mL
"Clc1ccccc1C(c1ccccc1)(c1ccccc1)n1ccnc1 [Clotrimazole, 1-(2-chlorophenyl)-diphenylmethyl-1H-imidazole]",MIC,Listeria monocytogenes,5 µg/mL
same,MIC,Corynebacterium pyogenes,25 µg/mL
same,MIC,[1],0.5 µg/mL
same,MIC,Campylobacter jejuni,100 µg/mL
same,MIC,Campylobacter fetus,100 µg/mL
same,MIC,Streptococcus agalactiae,5 µg/mL
same,MIC,Bacteroides fragilis,200 µg/mL
same,MIC,[2],100 µg/mL
same,MIC,Streptococcus faecalis,5 µg/mL
same,MIC,Aspergillus fumigatus,1 µg/mL
same,MIC,Salmonella typhimurium,200 µg/mL
same,MIC,Candida albicans; [4],5 µg/mL
same,MIC,Mycoplasma bovis,32 µg/mL
same,MIC,[3],0.5 µg/mL
same,MIC,Klebsiella pneumoniae,> 200 µg/mL
same,MIC,Mycoplasma bovirhinis,32 µg/mL
same,MIC,Mycoplasma canadense,32 µg/mL
same,MIC,Streptococcus uberis,0.5 µg/mL
same,MIC,Pseudomonas aeruginosa,> 200 µg/mL
same,MIC,Staphylococcus aureus,0.5 µg/mL
same,MIC,Escherichia coli 494,> 200 µg/mL
same,"effect on Escherichia coli strains, in words",Escherichia coli 494; substance alone,very weak effect
same,MIC,Escherichia coli 17,> 200 µg/mL
same,"effect on Escherichia coli strains, in words",Escherichia coli 17; substance alone,very weak effect
